Data on five molecules can be found in BindingDB's records for doi:10.1016/0960-894X(96)00091-1 (1996).

Molecules are shown by their SMILES. pIC50: −log10 of the molar value.

For the assay, the target named is Endothelin-converting enzyme 1 (Sus scrofa). Put plainly: Compound was evaluated for inhibition of Endothelin-converting enzyme 1 partially purified from porcine primary aortic endothelial cells.
Broadly, the pIC50 is the IC50 on a negative log10 scale, so that one unit is a factor of ten. For the molecule `O=C(Cc1ccc(-c2ccccc2)cc1)N[C@@H](CS)Cc1cccnc1` [2-Biphenyl-4-yl-N-((R)-1-mercaptomethyl-2-pyridin-3-yl-ethyl)-acetamide], the pIC50 is 5.28. In the case of `O=C(CCC(C(=O)O)c1ccccc1)N[C@@H](CS)Cc1c[nH]c2ccccc12` (stereo partly drawn) [4-[(R)-2-(1H-Indol-3-yl)-1-mercaptomethyl-ethylcarbamoyl]-2-phenyl-butyric acid], the pIC50 was 5.27.

With `O=C(Cc1ccc(OCc2cccnc2)cc1)N[C@@H](CS)Cc1c[nH]c2ccccc12` [N-[(R)-2-(1H-Indol-3-yl)-1-mercaptomethyl-ethyl]-2-[4-(pyridin-3-ylmethoxy)-phenyl]-acetamide], the pIC50 was 5.11. The pIC50 values of the last two molecules are within 0.2 log units of each other. Then `O=C(N[C@@H](CS)Cc1c[nH]c2ccccc12)c1cccs1` [Thiophene-2-carboxylic acid [(R)-2-(1H-indol-3-yl)-1-mercaptomethyl-ethyl]-amide], with 5.28. Then `O=C(N[C@@H](CS)Cc1c[nH]c2ccccc12)C1CCN(C(=O)Cc2ccc(-c3ccccc3)cc2)CC1` [1-(2-Biphenyl-4-yl-acetyl)-piperidine-4-carboxylic acid [(R)-2-(1H-indol-3-yl)-1-mercaptomethyl-ethyl]-amide], with 5.19.
